“Also recorded” adds a separate entry of the source.
How the values were obtained:
[1] = biological target: T1, COX-I (purified cyclooxygenase Type 1) (Ovis aries, UniProt P05979); assay: COX inhibition assay, purified cyclooxygenase (Type 1); type: biochemical, ram; settings: FIG. 4
T1 construct: purified cyclooxygenase from ram seminal vesicles; from tissue; host or cells: ram seminal vesicles
T1 sequence (P05979 25-600): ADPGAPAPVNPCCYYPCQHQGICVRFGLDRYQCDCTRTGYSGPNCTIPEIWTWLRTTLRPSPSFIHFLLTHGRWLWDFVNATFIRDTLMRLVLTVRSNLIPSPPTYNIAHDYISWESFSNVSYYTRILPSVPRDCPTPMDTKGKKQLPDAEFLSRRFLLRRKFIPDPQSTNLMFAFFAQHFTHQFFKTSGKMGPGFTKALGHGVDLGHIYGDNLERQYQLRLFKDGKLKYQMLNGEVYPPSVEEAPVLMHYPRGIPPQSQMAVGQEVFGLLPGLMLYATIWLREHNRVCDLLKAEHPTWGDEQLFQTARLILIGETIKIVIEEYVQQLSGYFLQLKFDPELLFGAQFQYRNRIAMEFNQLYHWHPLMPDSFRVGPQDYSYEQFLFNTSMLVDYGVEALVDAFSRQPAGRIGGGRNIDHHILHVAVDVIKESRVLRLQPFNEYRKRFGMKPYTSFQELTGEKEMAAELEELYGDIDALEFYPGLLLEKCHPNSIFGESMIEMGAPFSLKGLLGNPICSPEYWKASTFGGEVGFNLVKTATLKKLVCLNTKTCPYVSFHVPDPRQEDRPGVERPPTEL

[2] = test system: colon, breast, lung, prostate, kidney, and melanoma neoplasias; settings: cited from earlier work
[3] = test system: PSA (prostate specific antigen) level; assay: Human clinical trial post-prostatectomy, PSA level; type: in vivo
Protocol: A separate clinical trial was also performed on male patients who had prostate cancer, and as a result had their prostates removed. The study was conducted in patients with detectable PSA (prostate specific antigen) levels that were rising following radical prostatectomy, indicating recurrence of prostate cancer.
96 patients were enrolled in the prostate study: a double-blind, placebo-controlled, multi-center trial involving exisulind administered to the drug-receiving patients at 500 mg/day. […] Although a rising level of PSA is not itself a disease condition, it is widely regarded in the medical community as a surrogate marker indicative of the presence of recurrence of prostate cancer in such men.
In addition to performing an analysis based on the differences in mean PSA levels between the exisulind and placebo groups as a whole, the interim analysis included subgroup analysis. The patients in the study were classified into high, intermediate and low risk groups in terms of their risk of developing metastatic disease. This classification was performed by a researcher at Johns Hopkins University, using the methodology published by them and other Johns Hopkins' researchers in the Journal of the American Medical Association (JAMA May 5, 1999, pp. 1591-97). To ascertain which study patients fell into which risk group, medical histories were supplied to the researcher who was blinded as to whether patients were on drug or placebo; they assigned study patients to the appropriate risk groups according to the above referenced published methodology.

[4] = test system: PKG in SW480 cells; assay: PKG expression by Western blot in SW480 cells; type: cell-based, human; settings: 48 hours
Protocol: This increase in PKG protein expression was further verified by relatively quantative western blot, as described below.
SW480 cells treated with exisulind as described previously are harvested from the microfuge tubes by rinsing once with ice-cold PBS. The cells are lysed by modified RIPA buffer for 15 minutes with agitation. The cell lysate is spun down in a cold room. The supernatants are transferred to fresh microcentrifuge tubes immediately after spinning. BioRad DC Protein Assay (Temecula, Calif.) is performed to determine the protein concentrations in samples. The samples are normalized for protein concentration, as described above.
50 μg of each sample is loaded to 10% SDS gel. SDS-PAGE is performed, and the proteins then are transferred to a nitrocellulose membrane. The blotted nitrocellulose membrane are blocked in freshly prepared TBST containing 5% nonfat dry milk for one hour at room temperature with constant agitation.
A goat-anti-PKG primary antibody is diluted to the recommended concentration/dilution in fresh TBST/5% nonfat dry milk. The nitrocellulose membrane is placed in the primary antibody solution and incubated one hour at room temperature with agitation. The nitrocellulose membrane is washed three times for ten minutes each with TBST. […]

SMILES: CC1=C(CC(=O)O)c2cc(F)ccc2/C1=C\c1ccc(S(C)(=O)=O)cc1 [Exisulind, 5-fluoro-2-methyl-1-(p-methylsulfonylbenzylidene)-3-indenylacetic acid]
- IC50 [1]: > 10 mM
- reported anti-neoplastic effects [2]: anti-neoplastic effects on colon, breast, lung, prostate, kidney, and melanoma neoplasias
- PSA levels vs placebo ([3]; 500 mg/day): significantly reduced as compared with the PSA levels of the placebo-treated group; also recorded: statistically significant differences in mean PSA levels between exisulind and placebo patients in both high and intermediate risk groups
- Mean PSA level, High Risk ([3]; 500 mg/day, High Risk, placebo 4.98): 2.91
- Mean PSA level, Intermediate Risk ([3]; 500 mg/day, Intermediate Risk, placebo 6.24): 2.95
- Mean PSA level, Overall ([3]; 500 mg/day, Overall, placebo 4.49): 2.85
- "p" value, mean PSA, High Risk ([3]; vs placebo, High Risk): 0.0002
- "p" value, mean PSA, Intermediate Risk ([3]; vs placebo, Intermediate Risk): 0.0053
- "p" value, mean PSA, Overall ([3]; vs placebo, Overall): 0.0004
- PKG level by Western blot [4]: increase of PKG

— US6130053A, “Method for selecting compounds for inhibition of neoplastic lesions” (priority 1999, dated 2000)
